Assay results: ChEMBL document CHEMBL4732125, “Structures/cytotoxicity/selectivity relationship of natural steroidal saponins against GSCs and primary mechanism of tribulosaponin A” (Eur J Med Chem, 2021)
Activity calls are given as the source filed them. The calls are words filed in the database; no cut-off is given here.

Tests used:
GSC-18 [1] = experiment: (§1) Cytotoxicity against human GSC18 cells assessed as reduction in cell viability after 72 hrs by MTS assay; format: functional, cell-based
HUVEC [2] = experiment: Cytotoxicity against HUVEC assessed as reduction in cell viability after 72 hrs by MTS assay; format: cell-based, Homo sapiens; details: for IC50: Homo sapiens, HUVEC
GSC-3 [3] = experiment: (§2) Cytotoxicity against human GSC3 cells assessed as reduction in cell viability after 72 hrs by MTS assay; format: functional, cell-based
HEK-293T [4] = experiment: Cytotoxicity against human 293T cells assessed as reduction in cell viability after 72 hrs by MTS assay; format: cell-based; details: for IC50: Homo sapiens, HEK-293T
[5] = as §1; format: functional, cell-based, GSC-18; details: GSC18, 72 h
[6] = as §2; format: functional, cell-based; details: GSC-3, 72 h
GSC-18 [7] = experiment: Cytotoxicity against human GSC18 cells assessed as inhibition of cell growth at 20 uM after 5 days; format: functional, cell-based; details: time 5.0 day
U-87 MG [8] = experiment: Cytotoxicity against human U-87 MG cells assessed as inhibition of cell growth at 20 uM after 5 days; format: cell-based; details: u-87mg atcc, 120 h, time 5 day
U-87 MG [9] = experiment: Cytotoxicity against human U-87 MG cells assessed as reduction in cell viability after 72 hrs by MTS assay; format: cell-based, U-87MG ATCC
GSC-3 [10] = experiment: Cytotoxicity against human GSC3 cells assessed as inhibition of cell growth at 20 uM after 5 days; format: functional, cell-based; details: time 5.0 day
T98G [11] = experiment: Cytotoxicity against human T98G cells assessed as inhibition of cell growth at 20 uM after 5 days; format: cell-based; details: 120 h, time 5 day
T98G [12] = experiment: Cytotoxicity against human T98G assessed as reduction in cell viability after 72 hrs by MTS assay; format: cell-based
HUVEC [13] = experiment: Cytotoxicity against HUVEC assessed as inhibition of cell growth at 20 uM after 5 days; format: cell-based; details: human, 120 h, time 5 day
HEK-293T [14] = experiment: Cytotoxicity against human 293T cells assessed as inhibition of cell growth at 20 uM after 5 days; format: cell-based; details: 120 h, time 5 day
GSC-3 [15] = experiment: Inhibition of colony formation in human GSC-3 cells assessed as decrease in number of tumor spheres at 15 uM after 2 weeks by crystal violet staining based assay; format: functional, cell-based
GSC-18 [16] = experiment: Inhibition of colony formation in human GSC-18 cells assessed as tumor spheres damage at 15 uM after 2 weeks by crystal violet staining based assay; format: functional, cell-based
GSC-18 [17] = experiment: Inhibition of colony formation in human GSC-18 cells assessed as decrease in number of tumor spheres at 15 uM after 2 weeks by crystal violet staining based assay; format: functional, cell-based
GSC-3 [18] = experiment: Inhibition of colony formation in human GSC-3 cells assessed as tumor spheres damage at 15 uM after 2 weeks by crystal violet staining based assay; format: functional, cell-based

For `C[C@@H]1CC[C@@]2(OC1)O[C@H]1C[C@H]3[C@@H]4CC=C5C[C@@H](O[C@@H]6O[C@H](CO)[C@@H](O[C@@H]7O[C@@H](C)[C@H](O[C@@H]8O[C@@H](C)[C@H](O)[C@@H](O)[C@H]8O)[C@@H](O)[C@H]7O)[C@H](O)[C@H]6O[C@@H]6O[C@@H](C)[C@H](O)[C@@H](O)[C@H]6O)CC[C@]5(C)[C@H]4CC[C@]3(C)[C@H]1[C@@H]2C` [PENNOGENIN RAHAMNOSYL CHACOTRIOSIDE], the Activity (GSC-18 [1]) was “inactive”, the IC50 (HUVEC [2]) was 1830 nM and the Activity (GSC-3 [3]) was “inactive”. The IC50 (HEK-293T [4]) was 1830 nM.
With `CO[C@]1(CC[C@@H](C)CO[C@@H]2O[C@H](CO)[C@@H](O)[C@H](O)[C@H]2O)O[C@H]2C[C@H]3[C@@H]4CC=C5C[C@@H](O[C@@H]6O[C@H](CO)[C@@H](O[C@@H]7O[C@@H](C)[C@H](O)[C@@H](O)[C@H]7O)[C@H](O)[C@H]6O[C@@H]6O[C@@H](C)[C@H](O)[C@@H](O)[C@H]6O)CC[C@]5(C)[C@H]4CC[C@]3(C)[C@H]2[C@@H]1C` [METHYLPROTODIOSCIN] the IC50 [5] was 1820 nM and the IC50 [6] was 1820 nM.
In the case of `C[C@H](CC[C@@]1(O)O[C@H]2C[C@H]3[C@@H]4CC=C5C[C@@H](O[C@@H]6O[C@H](CO)[C@@H](O[C@@H]7O[C@@H](C)[C@H](O)[C@@H](O)[C@H]7O)[C@H](O)[C@H]6O[C@@H]6O[C@@H](C)[C@H](O)[C@@H](O)[C@H]6O)CC[C@]5(C)[C@H]4CC[C@]3(C)[C@H]2[C@@H]1C)CO[C@@H]1O[C@H](CO)[C@@H](O)[C@H](O)[C@H]1O`, the IC50 [5] is reported as 1090 nM, the IC50 (HUVEC [2]) is reported as 3220 nM and the IC50 [6] is reported as 1030 nM. The IC50 (HEK-293T [4]) was 3220 nM.
For `C[C@@H]1CC[C@@]2(OC1)O[C@H]1C[C@H]3[C@@H]4CC=C5C[C@@H](O[C@@H]6O[C@H](CO)[C@@H](O[C@@H]7O[C@@H](C)[C@H](O)[C@@H](O)[C@H]7O)[C@H](O)[C@H]6O[C@@H]6O[C@@H](C)[C@H](O)[C@@H](O)[C@H]6O)CC[C@]5(C)[C@H]4CC[C@]3(C)[C@H]1[C@@H]2C`, the Activity (GSC-18 [1]) was “Active” and the Activity (GSC-3 [3]) was “Active”.
For `CC(=O)O[C@H]1C(=O)[C@@]2(C)[C@H]([C@H](OC(=O)c3ccccc3)[C@]3(O)C[C@H](OC(=O)[C@H](O)[C@@H](NC(=O)c4ccccc4)c4ccccc4)C(C)=C1C3(C)C)[C@]1(OC(C)=O)CO[C@@H]1C[C@@H]2O` [PACLITAXEL], the IC50 [5] was 9600 nM, the Activity (GSC-18 [7]) was “Active” and the Activity (U-87 MG [8]) was “Toxic”. The IC50 (U-87 MG [9]; Homo sapiens, U-87 MG) was 8 nM, the Activity (GSC-3 [10]) was “Active” and the IC50 (HUVEC [2]) was 5 nM. The Activity (T98G [11]) was “Toxic”, the IC50 (T98G [12]; Homo sapiens, T98G) was 12 nM and the Activity (HUVEC [13]) was “Toxic”. The Activity (HEK-293T [14]) was “Toxic”, the IC50 [6] was 11300 nM and the IC50 (HEK-293T [4]) was 10 nM.
In the case of `C[C@@H]1CC[C@@]2(OC1)O[C@H]1C[C@H]3[C@@H]4CC=C5C[C@@H](O[C@@H]6O[C@H](CO)[C@@H](O)[C@H](O)[C@H]6O[C@@H]6O[C@@H](C)[C@H](O)[C@@H](O)[C@H]6O)CC[C@]5(C)[C@H]4CC[C@]3(C)[C@H]1[C@@H]2C` [OPHIOPOGONIN C], the IC50 [5] is reported as 780 nM, the Activity (U-87 MG [9]; human, u-87mg atcc, time 72 hrs) is reported as “Non-Toxic” and the Activity (HUVEC [2]; human, huvec, time 72 hrs) is reported as “Non-Toxic”. The Activity (T98G [12]; human, t98g, time 72 hrs) was “Non-Toxic”, the IC50 [6] was 780 nM and the Activity (HEK-293T [4]; human, hek-293t, time 72 hrs) was “Non-Toxic”.
In the case of `Cn1nnc2c(C(N)=O)ncn2c1=O`, the inhibition (GSC-3 [15]) is reported as “Active”, the Activity (GSC-18 [16]) is reported as “Active” and the inhibition (GSC-18 [17]) is reported as “Active”. For the same molecule, the Activity (GSC-3 [18]) was “Active”.
With `C[C@@H]1O[C@@H](O[C@H]2[C@H](O[C@H]3CC[C@@]4(C)C(=CC[C@H]5[C@@H]6C[C@@H]7O[C@@]8(OC[C@H](CO)CC8O[C@H]8O[C@@H](CO)[C@H](O)[C@@H](O)[C@@H]8O)[C@@H](C)[C@@H]7[C@@]6(C)CC[C@@H]54)C3)O[C@H](CO)[C@@H](O[C@@H]3O[C@@H](C)[C@H](O)[C@@H](O)[C@H]3O)[C@@H]2O)[C@H](O)[C@H](O)[C@H]1O` (stereo partly specified) the Activity (GSC-18 [1]) was “inactive” and the Activity (GSC-3 [3]) was “inactive”.
